Test results taken from US9795643B2, “Oncolytic measles virus” (priority 2010, dated 2017).

Tested on: subcutaneously grown Hep3B tumors
Experiment: Murine xenograft model of human HCC (Hep3B)
Type: in vivo, nude mice
Method: To test the armed vectors pc3MerV2 Id-SCD, pMerV2 P-SCD, and pc3MerV2 Id-VP22SCD in vivo, a murine xenograft model of human HCC was applied.
To compare the armed vectors, a mouse model of subcutaneously grown Hep3B tumors was chosen. This decision was based on the facts (i) that Hep3B can be efficiently infected by MeV and support MeV replication at high levels, (ii) that in Hep3B, the conversion of 5-FC into 5-FU is fast and efficient and (iii) that over an incubation of 1-4 days after addition of the prodrug to infected cells, an increasing gap between the treatment with virus alone and the combination treatment can be observed. Additionally, a mouse model of Hep3B has been described before (Blechacz B, Splinter P L, Greiner S, Myers R, Peng K W, Federspiel M J, Russell S J, LaRusso N F. Hepatology. 2006 December; 44(6):1465-77) with a high engraftment ratio (80%, personal communication with Boris Blechacz, Mayo Clinic, Rochester, Minn., USA). In contrast, this ratio is much lower in PLC/PRF/5 (60%) and in HepG2, both determined in our laboratory.
For this in vivo experiment, six week old nude mice received subcutaneous injections of 100 μl cell suspension containing 10^6 Hep3B cells in PBS. […] The tumors were very well vascularized and appeared blue through the nude skin of the mice. After the tumors had grown to a diameter of approximately 5 mm, the mice received five intratumoral injections of the respective virus (MeV Id-SCD, MeV Id-VP22SCD or MeV P-SCD) with 2*10^6 pfu per injection and one injection daily (total dose: 10^7 pfu). Control groups were treated with medium only. On the following seven days, the mice received 500 mg/kg bodyweight 5-FC in PBS intraperitoneally. Tumor volume and weight of the animals were determined three times a week.
The combinatorial treatment (MeV-SCD+5-FC) did neither lead to any visible changes in the behavior of the animals, nor did they show reactions like enhanced sensitivity to touch. The skin of the mice looked healthy, no changes in their movement or feeding behaviors were observed and their weight remained stable.

`Nc1nc(=O)[nH]cc1F` [5-FC, 5-fluorocytosine] was tested, and the “effect of administration of the prodrug alone” value (5-FC 500 mg/kg i.p., 7 days, no virus) was “no effect”, the “day before which all mice had to be sacrificed” value (5-FC only group) was less than 50 days and the median survival (virus 5 intratumoral injections 2*10^6 pfu, 5-FC 500 mg/kg i.p. for 7 days) was 32 days.
